Experiments:
Human HDAC7 = biological target: T1, Human HDAC7 (Homo sapiens, UniProt Q8WUI4); test: HDAC7 biochemical assay, class IIa-specific substrate; details: read-out: HDAC Isoform IC50 (nM) 7
T1 construct: (a.a. 518-end) with N-terminal GST tag; GST (N); host or cells: baculovirus expression system
T1 sequence (Q8WUI4 518-952 limits assumed): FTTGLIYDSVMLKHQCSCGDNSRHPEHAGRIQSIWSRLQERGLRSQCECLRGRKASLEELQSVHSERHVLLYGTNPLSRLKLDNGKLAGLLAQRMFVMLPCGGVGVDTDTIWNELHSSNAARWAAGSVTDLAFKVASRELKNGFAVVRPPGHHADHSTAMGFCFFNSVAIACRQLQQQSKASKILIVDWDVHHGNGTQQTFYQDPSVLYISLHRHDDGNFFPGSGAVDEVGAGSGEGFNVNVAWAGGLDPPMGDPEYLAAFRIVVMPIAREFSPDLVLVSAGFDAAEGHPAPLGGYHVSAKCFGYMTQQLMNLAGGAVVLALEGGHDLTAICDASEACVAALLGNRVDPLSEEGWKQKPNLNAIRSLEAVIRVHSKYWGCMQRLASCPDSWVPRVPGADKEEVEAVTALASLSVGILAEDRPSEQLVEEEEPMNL
In short: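 GST-tagged HDAC7 (a.a. 518-end, baculovirus-expressed) at 0.001 ng/ul with 50 μM Boc-Lys(trifluoroacetyl)-AMC substrate, 30 min at room temperature in pH 8.0 Tris buffer with BSA, 1% DMSO final. Developer then releases AMC; fluorescence read at 360/460 nm.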

[1] = system: acetylated α-tubulin in A549 lung adenocarcinoma cells; test: Acetylated α-tubulin in-cell western (ICW) assay; assay type: cell-based; details: Homo sapiens, 16 h exposure, relative to 40 μM scriptaid positive control, read-out: EC50 Ac-α-tubulin, A549 cells
In short: (§1)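 A549 cells exposed to compound for 16 h at 37 °C (0.4% DMSO final), then fixed and immunostained for acetylated α-tubulin or histone H3 with near-infrared detection, signal normalised to cell stain. Response expressed relative to DMSO controls and to 40 μM scriptaid (tubulin) or 40 μM TSA (H3); EC50 by constrained nonlinear regression.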

[2] = system: acetylated histone H3 in A549 lung adenocarcinoma cells; test: Acetylated histone H3 in-cell western (ICW) assay; assay type: cell-based; details: Homo sapiens, 16 h exposure, relative to 40 μM Trichostatin A positive control, read-out: EC50 Ac-histone H3, A549 cells
In short: as §1

Human HDAC9 = biological target: T2, Human HDAC9 (Homo sapiens, UniProt Q9UKV0); test: HDAC9 biochemical assay, class IIa-specific substrate; details: read-out: HDAC Isoform IC50 (nM) 9
T2 construct: amino acids 604-1066 with C-terminal His tag; His (C); host or cells: baculovirus expression system
T2 sequence (Q9UKV0 604-1066 isoform Q9UKV0-5): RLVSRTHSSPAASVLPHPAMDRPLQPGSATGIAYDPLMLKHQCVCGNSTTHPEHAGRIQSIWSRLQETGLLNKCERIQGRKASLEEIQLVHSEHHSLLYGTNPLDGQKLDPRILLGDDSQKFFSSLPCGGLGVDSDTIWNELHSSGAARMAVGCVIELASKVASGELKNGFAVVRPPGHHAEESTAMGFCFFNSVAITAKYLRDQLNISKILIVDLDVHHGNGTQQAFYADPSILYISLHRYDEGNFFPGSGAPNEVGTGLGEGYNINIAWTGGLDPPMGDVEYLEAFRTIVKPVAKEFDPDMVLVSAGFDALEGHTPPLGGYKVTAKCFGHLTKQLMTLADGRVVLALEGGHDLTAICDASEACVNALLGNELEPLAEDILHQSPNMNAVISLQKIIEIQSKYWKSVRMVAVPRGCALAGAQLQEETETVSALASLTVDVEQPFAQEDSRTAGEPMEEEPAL
In short: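 HDAC9 residues 604-1066 (C-terminal His tag, baculovirus-expressed) at 0.06 ng/ul with 50 μM class IIa substrate Boc-Lys(trifluoroacetyl)-AMC in Tris-HCl pH 8.0 buffer with BSA and 1% DMSO. 30 min at room temperature, then developer added; fluorescence read at 360/460 nm Ex/Em.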

| SMILES | IC50 (Human HDAC7) [nM] | EC50 [1] [µM] | EC50 [2] [µM] | IC50 (Human HDAC9) [nM] |
| --- | --- | --- | --- | --- |
| O=C(c1ccc(N(Cc2ccc(-c3noc(C(F)(F)F)n3)s2)c2cnccn2)nn1)N1C[C@@H]2C[C@H]1CO2 [Example FE, 6-[(1S,4S)-2-Oxa-5-azabicyclo[2.2.1]heptane-5-carbonyl]-N-(pyrazin-2-yl)-N-({5-[5-(trifluoromethyl)-1,2,4-oxadiazol-3-yl]thiophen-2-yl}methyl)pyridazin-3-amine] | ≤ 500 | 1 to 10 | ≥ 10 | ≤ 10000 |
| CN(C)C1CN(C(=O)c2cnnc(N(Cc3ccc(-c4noc(C(F)(F)F)n4)s3)c3cnccn3)c2)C1 [Example FX, 5-[3-(Dimethylamino)azetidine-1-carbonyl]-N-(pyrazin-2-yl)-N-({5-[5-(trifluoromethyl)-1,2,4-oxadiazol-3-yl]thiophen-2-yl}methyl)pyridazin-3-amine] | ≤ 1000 | ≤ 1 | ≥ 10 | ≤ 10000 |
| O=C(c1cnnc(N(Cc2ccc(-c3noc(C(F)(F)F)n3)s2)c2cnccn2)c1)N1CCCC1 [Example EA, N-(Pyrazin-2-yl)-5-(pyrrolidine-1-carbonyl)-N-({5-[5-(trifluoromethyl)-1,2,4-oxadiazol-3-yl]thiophen-2-yl}methyl)pyridazin-3-amine] | ≤ 10000 | ≤ 1 | ≥ 10 | ≤ 10000 |
| O=C(c1ccc(N(Cc2ccc(-c3noc(C(F)(F)F)n3)s2)c2cnccn2)nn1)N1CCCC1 [Example FI, N-(Pyrazin-2-yl)-6-(pyrrolidine-1-carbonyl)-N-({5-[5-(trifluoromethyl)-1,2,4-oxadiazol-3-yl]thiophen-2-yl}methyl)pyridazin-3-amine] | ≤ 500 | ≤ 1 | ≥ 10 | ≤ 1000 |
| O=C(c1ccc(N(Cc2ccc(-c3noc(C(F)(F)F)n3)s2)c2cnccn2)nn1)N1CC(O)(C(F)(F)F)C1 [Example FK, 1-{6-[(Pyrazin-2-yl)({5-[5-(trifluoromethyl)-1,2,4-oxadiazol-3-yl]thiophen-2-yl}methyl)amino]pyridazine-3-carbonyl}-3-(trifluoromethyl)azetidin-3-ol] | ≤ 500 | ≤ 1 | ≥ 10 | ≤ 500 |

— patent US20210038607A1, “OXADIAZOLYLTHIOPHENE DERIVATIVES USEFUL AS HISTONE DEACETYLASE INHIBITORS” (Karus Therapeutics Limited, priority 2018, published 2021)
